One assay deals with photosystem II. Description: PSII oxygen evolution / electron transfer activity of treated Crofton weed leaves. The following applies: 50 μg/mL, strong light 12 hours. Format: biochemical. In a few lines: (§1)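 Cleaned Crofton weed leaves had 50 μg/mL compound (methanol diluted in water) applied to the underside, with matching methanol–water control. Vacuum 15 min at 25° C, then 12 h strong light (400 μM m^−2 s^−1) before measuring Hill reaction, electron transfer and chlorophyll fluorescence; four leaves per treatment, tested three times.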

In assay [1] the test system is fluorescence of chlorophyll. Description: Fluorescence of chlorophyll of treated Crofton weed leaves. It counts as biochemical. The following applies: 50 μg/mL, strong light 12 hours. In a few lines:
as §1

The test system of assay [2] is Aster ageratoides var. scaberulus. Description: Leaf piece damage test. It counts as in vivo. Details: key: 4: The leaf completely dead; 3: Two third of the leaf withered; 2: One half of the leaf withered; 1: Only edge of the leaf withered; 0: Not damage at all. To be noted: 50 μg/mL, 4 days. The procedure:
(§2) Compounds 7, 14, 15, 16, 40, 45, 48 and 53 were dissolved individually in small amount of methanol, and diluted with distilled water to concentration of 50 μg/mL. Methanol water solution and pure water were used as control. A piece of 5 mm leaf was taken from the second leaf of weed sample and was treated with the solution three times. 5 pieces of the leaf were prepared for each treatment. The damage data were collected 4 days later. The measurement of damage level is described in the Table 9.
(§3) The measurement of the plant damage was calculated by the formula: Damage Index=Σ(damage level×number of plants)×100/4/number of plants in each treatment.

A further assay deals with Perilla frutescens. Description: Leaf piece damage test. The following applies: 50 μg/mL, 4 days. It counts as in vivo. Also on record: key: 4: The leaf completely dead; 3: Two third of the leaf withered; 2: One half of the leaf withered; 1: Only edge of the leaf withered; 0: Not damage at all. The procedure: as §2, §3
A further assay concerns Ambrosia artemisiifolia. Description: Leaf piece damage test. Format: in vivo. Also on record: key: 4: The leaf completely dead; 3: Two third of the leaf withered; 2: One half of the leaf withered; 1: Only edge of the leaf withered; 0: Not damage at all. To be noted: 50 μg/mL, 4 days. The procedure: as §2, §3
A further assay relates to Lamium amplexicaule. The experiment in a line: Leaf piece damage test. Details: key: 4: The leaf completely dead; 3: Two third of the leaf withered; 2: One half of the leaf withered; 1: Only edge of the leaf withered; 0: Not damage at all. Format: in vivo. The following applies: 50 μg/mL, 4 days. The procedure: as §2, §3
Assay [3] has as its system Barbyardgrass Echinochloa crusgalli. Description: Leaf piece damage test. It counts as in vivo. Details: key: 4: The leaf completely dead; 3: Two third of the leaf withered; 2: One half of the leaf withered; 1: Only edge of the leaf withered; 0: Not damage at all. To be noted: 50 μg/mL, 4 days. The procedure: as §2, §3
For a further assay, the system named is Humulus scandens. Description: Leaf piece damage test. To be noted: 50 μg/mL, 4 days. Also on record: key: 4: The leaf completely dead; 3: Two third of the leaf withered; 2: One half of the leaf withered; 1: Only edge of the leaf withered; 0: Not damage at all. Format: in vivo. On the procedure:
as §2, §3

In assay [4] the test system is Alligator weed (Alternanthera philoxeroides). Description: Leaf piece damage test. Format: in vivo. Also on record: key: 4: The leaf completely dead; 3: Two third of the leaf withered; 2: One half of the leaf withered; 1: Only edge of the leaf withered; 0: Not damage at all. To be noted: 50 μg/mL, 4 days. The procedure:
as §2, §3

The test system of another assay is Sonchus asper. The experiment in a line: Leaf piece damage test. Format: in vivo. Details: key: 4: The leaf completely dead; 3: Two third of the leaf withered; 2: One half of the leaf withered; 1: Only edge of the leaf withered; 0: Not damage at all. To be noted: 50 μg/mL, 4 days. On the procedure:
as §2, §3

In a further assay the test system is Cayratia japonica. Description: Leaf piece damage test. It counts as in vivo. Details: key: 4: The leaf completely dead; 3: Two third of the leaf withered; 2: One half of the leaf withered; 1: Only edge of the leaf withered; 0: Not damage at all. The following applies: 50 μg/mL, 4 days. The procedure:
as §2, §3

The next assay concerns Erigeron annuus. The experiment in a line: Leaf piece damage test. It counts as in vivo. Details: key: 4: The leaf completely dead; 3: Two third of the leaf withered; 2: One half of the leaf withered; 1: Only edge of the leaf withered; 0: Not damage at all. The following applies: 50 μg/mL, 4 days. On the procedure: as §2, §3
For a further assay, the system named is Eclipta prostrata. The experiment in a line: Leaf piece damage test. Also on record: key: 4: The leaf completely dead; 3: Two third of the leaf withered; 2: One half of the leaf withered; 1: Only edge of the leaf withered; 0: Not damage at all. It counts as in vivo. To be noted: 50 μg/mL, 4 days. On the procedure: as §2, §3
The next assay has as its system Veronica didyma. The experiment in a line: Leaf piece damage test. Format: in vivo. The following applies: 50 μg/mL, 4 days. Also on record: key: 4: The leaf completely dead; 3: Two third of the leaf withered; 2: One half of the leaf withered; 1: Only edge of the leaf withered; 0: Not damage at all. On the procedure:
as §2, §3

The subject of another assay is Crofton weed. The experiment in a line: Needle puncture pathogenic test on slightly wounded leaf of Crofton weed. The following applies: Crofton weed leaf, 50 μg/mL, 25° C., natural light. Format: in vivo. In a few lines:
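Compounds in a little methanol were diluted with water to 50 μg/mL (5–100 μg/g in a range test) and applied by needle to slightly wounded Crofton weed leaves. Leaves were kept at 25 °C under natural light with six or more replicates, against methanol/water controls. Lesion spot diameter was measured after 24 h.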

The next assay relates to Hill reaction. The experiment in a line: Hill reaction activity of treated Crofton weed leaves. The following applies: 50 μg/mL, strong light 12 hours. Format: biochemical. In a few lines: as §1

`CCCCC1NC(=O)C(C(C)=O)=C1O` (centres unmarked) [Compound 14]: the “PSII Activity of oxygen evolution” value with photosystem II was 34.01 uMO2/mgChlh. In assay [1], the Fv/Fm amounted to 0.79. Moreover, the Damage level was determined as 3 in [2]; 2 with Perilla frutescens; 3 in the assay with Ambrosia artemisiifolia; 2 in the assay on Lamium amplexicaule; 4 in assay [3]; 2 with Humulus scandens. The Damage level in [4] amounted to 3; with Sonchus asper, 3; in the assay on Cayratia japonica, 2; in the assay with Erigeron annuus, 3; in the assay with Eclipta prostrata, 3; with Veronica didyma it was 3. In addition, in the assay with Crofton weed, the “Time of Disease spot” value is given as 13.8 ± 0.54 h. The “Average diameter of spot after 24 h” value in the assay on Crofton weed is 6.37 ± 0.04 mm. Further, in the assay on Hill reaction, the “Activity of Hill Reaction” value was 67.37 uMO2/mgChlh.
Take `CCCCCC1NC(=O)C(C(C)=O)=C1O` (centres unmarked) [Compound 15]: the “PSII Activity of oxygen evolution” value with photosystem II is on record as 31.26 uMO2/mgChlh. In addition, the Fv/Fm in assay [1] is 0.78. Further, the Damage level in [2] came out at 3; in the assay with Perilla frutescens, 3; in the assay on Ambrosia artemisiifolia, 2; with Lamium amplexicaule, 3; in assay [3] it was 4; in the assay on Humulus scandens, 2. Besides, the Damage level in [4] was 2; in the assay with Sonchus asper it was 3; in the assay with Cayratia japonica, 2; in the assay with Erigeron annuus, 4; in the assay with Eclipta prostrata, 4; in the assay on Veronica didyma, 2. Also, the “Time of Disease spot” value in the assay on Crofton weed came to 9.5 ± 1.26 h. The “Average diameter of spot after 24 h” value with Crofton weed is given as 9.61 ± 1.20 mm. Moreover, the “Activity of Hill Reaction” value in the assay on Hill reaction was 62.77 uMO2/mgChlh.
Turning to `CCCCCCC1NC(=O)C(C(C)=O)=C1O` (centres unmarked) [Compound 16], in the assay on photosystem II, the “PSII Activity of oxygen evolution” value is given as 30.00 uMO2/mgChlh. For the same molecule, the Fv/Fm in assay [1] worked out at 0.83. Moreover, the Damage level in assay [2] was 4; in the assay on Perilla frutescens, 2; in the assay on Ambrosia artemisiifolia, 3; with Lamium amplexicaule it was 2; in [3] it was 4; in the assay with Humulus scandens, 3. For the same molecule, the Damage level in assay [4] is on record as 3; in the assay on Sonchus asper, 3; in the assay with Cayratia japonica it was 2; with Erigeron annuus it was 3; in the assay on Eclipta prostrata it was 3; in the assay on Veronica didyma, 2. In addition, in the assay on Crofton weed, the “Time of Disease spot” value was 13.80 ± 0.54 h. Besides, the “Average diameter of spot after 24 h” value in the assay on Crofton weed is reported as 7.61 ± 0.11 mm. The “Activity of Hill Reaction” value in the assay with Hill reaction came to 61.43 uMO2/mgChlh.
Take `CCCC(Cl)C1NC(=O)C(C(C)=O)=C1O` (centres unmarked) [Compound 40]: the “PSII Activity of oxygen evolution” value in the assay with photosystem II was found to be 24.00 uMO2/mgChlh. This molecule displayed a Fv/Fm in [1] of 0.82. Also, the Damage level was 3 in assay [2]; 2 with Perilla frutescens; 3 in the assay on Ambrosia artemisiifolia; 3 in the assay with Lamium amplexicaule; 4 in assay [3]; 3 in the assay on Humulus scandens. For the same molecule, the Damage level in assay [4] is given as 3; with Sonchus asper, 3; with Cayratia japonica, 2; with Erigeron annuus, 3; in the assay on Eclipta prostrata it was 3; in the assay on Veronica didyma it was 2. Besides, the “Time of Disease spot” value in the assay with Crofton weed is on record as 11.93 ± 0.66 h. Moreover, the “Average diameter of spot after 24 h” value in the assay with Crofton weed came to 8.10 ± 0.90 mm. Moreover, the “Activity of Hill Reaction” value with Hill reaction is listed as 46.20 uMO2/mgChlh.
As to `CCC(C)C1NC(=O)C(C(=O)CCF)=C1O` (centres unmarked) [Compound 44], in the assay on photosystem II, the “PSII Activity of oxygen evolution” value was determined as 40.75 uMO2/mgChlh. In [1], this molecule registered a Fv/Fm of 0.79. Besides, the Damage level in assay [2] was 4; with Perilla frutescens, 3; in the assay on Ambrosia artemisiifolia, 4; with Lamium amplexicaule, 3; in assay [3], 4; in the assay on Humulus scandens, 2. Besides, the Damage level in assay [4] was 4; in the assay on Sonchus asper, 3; in the assay on Cayratia japonica it was 3; in the assay on Erigeron annuus, 4; in the assay with Eclipta prostrata it was 4; in the assay with Veronica didyma, 3. In addition, the “Time of Disease spot” value in the assay with Crofton weed stood at 12.0 ± 1.33 h. Moreover, the “Average diameter of spot after 24 h” value in the assay with Crofton weed amounted to 4.07 ± 0.51 mm. In addition, the “Activity of Hill Reaction” value in the assay on Hill reaction is recorded as 59.15 uMO2/mgChlh.
As to `CCC(C)C1NC(=O)C(C(=O)CCc2cc(Cl)cc(Cl)c2)=C1O` (centres unmarked) [Compound 48], the Damage level in assay [2] stood at 4; in the assay on Perilla frutescens, 2; with Ambrosia artemisiifolia it was 3; in the assay on Lamium amplexicaule, 2; in assay [3] it was 4; with Humulus scandens it was 3. Further, the Damage level in [4] was found to be 4; with Sonchus asper, 4; in the assay with Cayratia japonica it was 3; with Erigeron annuus, 4; in the assay with Eclipta prostrata, 4; with Veronica didyma, 3. Further, in the assay on Crofton weed, the “Time of Disease spot” value is given as 13.5 ± 2.77 h. Besides, the “Average diameter of spot after 24 h” value with Crofton weed was 4.33 ± 0.54 mm.
Take `CCCC(C#N)C1NC(=O)C(=C(C)O)C1=O` (centres unmarked) [Compound 53]: the “PSII Activity of oxygen evolution” value in the assay on photosystem II amounted to 32.12 uMO2/mgChlh. The Fv/Fm in assay [1] turned out to be 0.79. The Damage level in [2] is 4; with Perilla frutescens it was 2; in the assay with Ambrosia artemisiifolia it was 3; in the assay on Lamium amplexicaule, 2; in assay [3] it was 4; in the assay on Humulus scandens it was 2. The Damage level is listed as 3 in [4]; 3 in the assay with Sonchus asper; 3 with Cayratia japonica; 3 in the assay on Erigeron annuus; 4 in the assay with Eclipta prostrata; 3 with Veronica didyma. The “Time of Disease spot” value in the assay on Crofton weed came to 12.90 ± 0.27 h. In the assay on Crofton weed, the “Average diameter of spot after 24 h” value was found to be 7.334 ± 0.845 mm. In the assay on Hill reaction, the “Activity of Hill Reaction” value turned out to be 42.72 uMO2/mgChlh.

The values above are taken from patent US9468209B2, “Method for eradicating weeds with derivatives of 3-acetyl-5-sec-butyl-4-hydroxy-3-pyrrolin-2-one” (priority 2012, dated 2016).
